Our source for the EC50 and IC50 values is ChEMBL document CHEMBL2057069, “Benzoxazole and benzothiazole amides as novel pharmacokinetic enhancers of HIV protease inhibitors” (Bioorg Med Chem Lett, 2012).

Assay [1] relates to Human immunodeficiency virus 1. Description: Antiviral activity against wild type HIV1 3B infected in human MT4 LTR-EGFP cells by EGFP reporter gene assay. The assay is classed as functional, organism-based. The note with it: Human immunodeficiency virus 1, 3B. (In general: A reporter such as luciferase makes a cellular process visible.)
Assay [2] addresses Cytochrome P450 3A4 (Homo sapiens, UniProt P08684). Description: Inhibition of CYP3A4 in human liver microsomes using midazolam as substrate after 10 mins by LC/MS/MS analysis.

Each structure is given as a SMILES string.

Sequence of Cytochrome P450 3A4 (P08684 whole entry): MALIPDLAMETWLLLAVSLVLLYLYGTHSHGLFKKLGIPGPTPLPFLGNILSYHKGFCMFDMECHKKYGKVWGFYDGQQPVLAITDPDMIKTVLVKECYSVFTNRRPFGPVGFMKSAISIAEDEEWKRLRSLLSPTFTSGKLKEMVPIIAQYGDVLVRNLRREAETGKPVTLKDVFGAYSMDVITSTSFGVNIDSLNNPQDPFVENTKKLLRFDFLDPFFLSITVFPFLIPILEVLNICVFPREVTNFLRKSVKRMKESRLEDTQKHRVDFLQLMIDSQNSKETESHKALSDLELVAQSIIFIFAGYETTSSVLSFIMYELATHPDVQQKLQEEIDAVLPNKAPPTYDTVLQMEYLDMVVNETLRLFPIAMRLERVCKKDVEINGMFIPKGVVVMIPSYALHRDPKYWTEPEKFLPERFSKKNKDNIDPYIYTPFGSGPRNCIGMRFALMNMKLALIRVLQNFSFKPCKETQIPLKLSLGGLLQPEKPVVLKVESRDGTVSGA

On to `CC(C)CN(C[C@@H](O)[C@H](Cc1ccccc1)NC(=O)OCc1cncs1)C(=O)c1ccc2nc(N(C)CCN(C)C)oc2c1`, for which the concentration for a half-maximal effect (EC50) (commonly the concentration at which the effect is half-maximal) in assay [1] came to 63 µM.

Turning to `CCN(C[C@@H](O)[C@H](Cc1ccccc1)NC(=O)OCc1cncs1)C(=O)c1ccc2nc(N3CCCC3)oc2c1`, the IC50 (as a rule, the concentration that gives 50% inhibition) in assay [2] was 0.06 µM. The same compound gave an EC50 in assay [1] of 69 µM.

As for `CC(C)CN(C[C@@H](O)[C@H](Cc1ccccc1)NC(=O)OCc1cncs1)C(=O)c1ccc2nc(NCCN(C)C)oc2c1`, in assay [2], half-maximal inhibition (IC50) required 0.2 µM. The EC50 in assay [1] was > 100 µM.

`CC(C)CN(C[C@@H](O)[C@H](Cc1ccccc1)NC(=O)OCc1cncs1)C(=O)c1ccc2nc(N(C)C)oc2c1`: the EC50 in assay [1] worked out at 47 µM.

In the case of `CCN(C)c1nc2ccc(C(=O)N(CCN3CCCC3)C[C@@H](O)[C@H](Cc3ccccc3)NC(=O)OCc3cncs3)cc2o1`, 0.14 µM corresponded to half-maximal inhibition in assay [2] (IC50). Further, the EC50 in assay [1] was > 100 µM.

On to `CCN(C)c1nc2ccc(C(=O)N(CC(C)C)C[C@@H](O)[C@H](Cc3ccccc3)NC(=O)OCc3cccnc3)cc2o1`, for which the IC50 in assay [2] was found to be 0.022 µM. The response in assay [1] was half-maximal at 48 µM (EC50).

For the compound `CC(C)(O)CN(C[C@@H](O)[C@H](Cc1ccccc1)NC(=O)OCc1cncs1)C(=O)c1ccc2nc(N3CCCC3)oc2c1`, the EC50 in assay [1] is > 100 µM.

Compound `CCN(C)c1nc2ccc(C(=O)N(CC(C)C)C[C@@H](O)[C@H](Cc3ccccc3)NC(=O)OCc3ccncc3)cc2o1` returned an IC50 in assay [2] of 0.2 µM. The same compound came in with an EC50 in assay [1] of 49 µM.

Regarding `CC(C)CN(C[C@@H](O)[C@H](Cc1ccccc1)NC(=O)OCc1cncs1)C(=O)c1ccc2nc(-c3ccncc3)oc2c1`, half-maximal inhibition in assay [2] (IC50) required 0.024 µM. In assay [1], the EC50 was > 100 µM.

On to `CC(C)(C)CN(C[C@@H](O)[C@H](Cc1ccccc1)NC(=O)OCc1cncs1)C(=O)c1ccc2nc(N3CCCC3)oc2c1`, for which, in assay [2], it took 0.027 µM to reach half-maximal inhibition (IC50). This compound also yielded an EC50 in assay [1] of 30 µM.

As to `CC(C)c1nc(CN(C)C(=O)N[C@H](C(=O)N[C@@H](Cc2ccccc2)C[C@H](O)[C@H](Cc2ccccc2)NC(=O)OCc2cncs2)C(C)C)cs1` [RITONAVIR], in assay [1], the EC50 turned out to be 0.0015 µM.

In assay [2], `CC(C)CN(C[C@@H](O)[C@H](Cc1ccccc1)NC(=O)OCc1cncs1)C(=O)c1ccc2nc(N3CCN(C)CC3)oc2c1` gave an IC50 of 0.092 µM. In addition, in assay [1], the EC50 is > 100 µM.

On to `CCN(C)c1nc2ccc(C(=O)N(CC3CCCCC3)C[C@@H](O)[C@H](Cc3ccccc3)NC(=O)OCc3cncs3)cc2o1`, for which, in assay [2], it took 0.026 µM to reach half-maximal inhibition (IC50). Besides, the midpoint of the response in assay [1], the EC50, lay at 21 µM.

Take `CCNc1nc2ccc(C(=O)N(CC(C)C)C[C@@H](O)[C@H](Cc3ccccc3)NC(=O)OCc3cncs3)cc2o1`: the IC50 in assay [2] is 0.028 µM. In assay [1], this compound showed an EC50 of 85 µM.

As for `CC(C)CN(C[C@@H](O)[C@H](Cc1ccccc1)NC(=O)OCc1cncs1)C(=O)c1ccc2nc(N3CCCC3)oc2c1`, half-maximal inhibition in assay [2] (IC50) was put at 0.033 µM. Besides, the EC50 in assay [1] is > 100 µM.

Regarding `CCN(C)c1nc2ccc(C(=O)N(CCN(C)C)C[C@@H](O)[C@H](Cc3ccccc3)NC(=O)OCc3cncs3)cc2o1`, in assay [1], the EC50 was > 100 µM.

In assay [2], `O=C(N[C@@H](Cc1ccccc1)[C@H](O)CN(CC1CCC(F)(F)CC1)C(=O)c1ccc2nc(N3CCCC3)oc2c1)OCc1cncs1` returned an IC50 of 0.03 µM. Besides, the EC50 in assay [1] was determined as 30 µM.

Consider `O=C(N[C@@H](Cc1ccccc1)[C@H](O)CN(CCN1CCOCC1)C(=O)c1ccc2nc(N3CCCC3)oc2c1)OCc1cncs1`, for which the IC50 in assay [2] turned out to be 0.12 µM. Besides, the EC50 in assay [1] was > 100 µM.

With `CCNc1nc2ccc(C(=O)N(C[C@@H](O)[C@H](Cc3ccccc3)NC(=O)OCc3cncs3)CC(C)(C)O)cc2o1`, the EC50 in assay [1] is > 100 µM.

For `CCN(C)c1nc2ccc(C(=O)N(CCN3CCOCC3)C[C@@H](O)[C@H](Cc3ccccc3)NC(=O)OCc3cncs3)cc2o1`, 0.14 µM corresponded to half-maximal inhibition in assay [2] (IC50). Further, the EC50 in assay [1] was > 100 µM.

As to `CCN(C[C@@H](O)[C@H](Cc1ccccc1)NC(=O)OCc1cncs1)C(=O)c1ccc2nc(N(C)CC)oc2c1`, the IC50 in assay [2] stood at 0.079 µM. Further, the EC50 in assay [1] is > 100 µM.

The compound `CCN(C)c1nc2ccc(C(=O)N(CC(C)C)C[C@@H](O)[C@H](Cc3ccccc3)NC(=O)OCc3ccc4c(c3)OCO4)cc2o1` yielded an EC50 in assay [1] of 16 µM.

In turn, `CC(C)CN(C[C@@H](O)[C@H](Cc1ccccc1)NC(=O)OCc1cncs1)C(=O)c1ccc2nc(N)oc2c1` came in with an IC50 in assay [2] of 0.042 µM. The EC50 in assay [1] is > 100 µM.

As to `CC(C)CN(C[C@@H](O)[C@H](Cc1ccccc1)NC(=O)OCc1cncs1)C(=O)c1ccc2nc(NCCCN(C)C)oc2c1`, the IC50 in assay [2] was determined as 0.2 µM. The compound also displayed an EC50 in assay [1] of 60 µM.

In assay [2], `CCN(C)c1nc2ccc(C(=O)N(CC(C)C)CC(O)[C@H](Cc3cccnc3)NC(=O)OCc3cncs3)cc2o1` (single isomer, unassigned) came in with an IC50 of 0.069 µM. Moreover, the EC50 in assay [1] was > 100 µM.

The compound `CC(C)CN(C[C@@H](O)[C@H](Cc1ccccc1)NC(=O)OCc1cncs1)C(=O)c1ccc2ncoc2c1` gave an IC50 in assay [2] of 0.055 µM. In assay [1], the half-maximal effective concentration (EC50) is > 100 µM.

On to `CN(C)CCN(C[C@@H](O)[C@H](Cc1ccccc1)NC(=O)OCc1cncs1)C(=O)c1ccc2nc(N3CCCC3)oc2c1`, for which the IC50 in assay [2] was found to be 0.23 µM. For the same compound, the EC50 in assay [1] was > 100 µM.

In turn, `O=C(N[C@@H](Cc1ccccc1)[C@H](O)CN(CCN1CCCC1)C(=O)c1ccc2nc(N3CCCC3)oc2c1)OCc1cncs1` had an IC50 in assay [2] of 0.13 µM. Besides, in assay [1], the EC50 was 58 µM.

`C#CCN(C[C@@H](O)[C@H](Cc1ccccc1)NC(=O)OCc1cncs1)C(=O)c1ccc2nc(N(C)CC)oc2c1` came in with an EC50 in assay [1] of 60 µM.

In assay [2], `CCN(C)c1nc2ccc(C(=O)N(C[C@@H](O)[C@H](Cc3ccccc3)NC(=O)OCc3cncs3)CC(C)(C)C)cc2o1` showed an IC50 of 0.037 µM. In assay [1], this compound registered an EC50 of 48 µM.

As for `CN(C[C@@H](O)[C@H](Cc1ccccc1)NC(=O)OCc1cncs1)C(=O)c1ccc2nc(N3CCCC3)oc2c1`, in assay [2], half-maximal inhibition (IC50) required 0.084 µM. Moreover, the EC50 in assay [1] is > 100 µM.

Turning to `CC(C)CN(C[C@H](O)[C@H](Cc1ccccc1)NC(=O)OCc1cncs1)C(=O)c1ccc2nc(N3CCCC3)oc2c1`, the EC50 in assay [1] turned out to be 45 µM.

Compound `CC(C)CN(C[C@@H](O)[C@H](Cc1ccccc1)NC(=O)OCc1cncs1)C(=O)c1ccc2nc(N3CCCCC3)oc2c1` displayed an EC50 in assay [1] of 36 µM.

Take `CCN(C)c1nc2ccc(C(=O)N(CC(C)C)C[C@@H](O)[C@H](Cc3ccc(F)cc3)NC(=O)OCc3cncs3)cc2o1`: the IC50 in assay [2] came to 0.023 µM. Also, a half-maximal effect in assay [1] (EC50) was put at 47 µM.

Consider `CC(C)CN(C[C@@H](O)[C@H](Cc1ccccc1)NC(=O)OCc1cncs1)C(=O)c1ccc2nc(NCCCn3ccnc3)oc2c1`, for which it took 87 µM to reach a half-maximal effect in assay [1] (EC50).

`O=C(N[C@@H](Cc1ccccc1)[C@H](O)CN(CC1CCCCC1)C(=O)c1ccc2nc(N3CCCC3)oc2c1)OCc1cncs1`: the IC50 in assay [2] is 0.026 µM. This compound yielded an EC50 in assay [1] of 28 µM.

As for `CCc1nc2ccc(C(=O)N(CC(C)C)C[C@@H](O)[C@H](Cc3ccccc3)NC(=O)OCc3cncs3)cc2o1`, in assay [2], the IC50 was 0.039 µM. Moreover, the EC50 in assay [1] amounted to 87 µM.

The compound `CCN(C)c1nc2ccc(C(=O)N(CC(C)C)C[C@H](O)[C@H](Cc3ccccc3)NC(=O)OCc3cncs3)cc2o1` came in with an EC50 in assay [1] of 45 µM.

In assay [2], `CC(C)CN(C[C@@H](O)[C@H](Cc1ccccc1)NC(=O)OCc1cncs1)C(=O)c1ccc2nc(NC3CCN(C)CC3)oc2c1` yielded an IC50 of 2.7 µM. The EC50 in assay [1] was > 100 µM.

The compound `CC(C)CN(C[C@@H](O)[C@H](Cc1ccccc1)NC(=O)OCc1cncs1)C(=O)c1ccc2nc(C(C)C)oc2c1` yielded an IC50 in assay [2] of 0.037 µM. Moreover, the midpoint of the response in assay [1], the EC50, lay at 45 µM.
